Experimental data as given in ChEMBL document CHEMBL5303573, “Mapping human microbiome drug metabolism by gut bacteria and their genes” (Nature, 2019).

Columns and labels:
[1] = The drug is tested on Bacteroides sp. WH2 strain: WH2 for biotransformation. The drug concentrations were measured before and after a 12-h incubation by liquid-chromatography-coupled mass spectrometry (LC–MS); settings: bacteroides sp. wh2, 12 h, 2 µM
[2] = The drug is tested on Bacteroides coprophilus strain: DSM18228 for biotransformation. The drug concentrations were measured before and after a 12-h incubation by liquid-chromatography-coupled mass spectrometry (LC–MS); settings: 2 µM
[3] = The drug is tested on Eubacterium ventriosum strain: ATCC27560 for biotransformation. The drug concentrations were measured before and after a 12-h incubation by liquid-chromatography-coupled mass spectrometry (LC–MS); type: ADME; parameters: dose 2 uM, timepoint 0 vs 12 hours; settings: 2 µM
[4] = bacteroides fragilis, 12 h, 2 µM
Description: The drug is tested on Bacteroides fragilis strain: 3397 (T10) for biotransformation. The drug concentrations were measured before and after a 12-h incubation by liquid-chromatography-coupled mass spectrometry (LC–MS)

[5] = The drug is tested on Escherichia coli strain: BW25113 for biotransformation. The drug concentrations were measured before and after a 12-h incubation by liquid-chromatography-coupled mass spectrometry (LC–MS); settings: 2 µM
[6] = The drug is tested on Blautia luti strain: DSM14534 for biotransformation. The drug concentrations were measured before and after a 12-h incubation by liquid-chromatography-coupled mass spectrometry (LC–MS); type: ADME; parameters: dose 2 uM, timepoint 0 vs 12 hours; settings: 2 µM
[7] = The drug is tested on Anaerotruncus colihominis strain: DSM17241 for biotransformation. The drug concentrations were measured before and after a 12-h incubation by liquid-chromatography-coupled mass spectrometry (LC–MS); settings: 2 µM
[8] = bacteroides thetaiotaomicron, 12 h, 2 µM
Description: The drug is tested on Bacteroides thetaiotaomicron strain: 3731 for biotransformation. The drug concentrations were measured before and after a 12-h incubation by liquid-chromatography-coupled mass spectrometry (LC–MS)

[9] = The drug is tested on Edwardsiella tarda strain: ATCC23685 for biotransformation. The drug concentrations were measured before and after a 12-h incubation by liquid-chromatography-coupled mass spectrometry (LC–MS); settings: 2 µM
[10] = The drug is tested on Bacteroides ovatus strain: ATCC8483 for biotransformation. The drug concentrations were measured before and after a 12-h incubation by liquid-chromatography-coupled mass spectrometry (LC–MS); settings: 2 µM
[11] = The drug is tested on Blautia hansenii strain: DSM20583 for biotransformation. The drug concentrations were measured before and after a 12-h incubation by liquid-chromatography-coupled mass spectrometry (LC–MS); settings: 2 µM
[12] = The drug is tested on Bacteroides xylanisolvens strain: DSM18836 for biotransformation. The drug concentrations were measured before and after a 12-h incubation by liquid-chromatography-coupled mass spectrometry (LC–MS); settings: 2 µM
[13] = bacteroides thetaiotaomicron, 12 h, 2 µM; remark: listed apart in the source
Description: The drug is tested on Bacteroides thetaiotaomicron strain: VPI-5482 for biotransformation. The drug concentrations were measured before and after a 12-h incubation by liquid-chromatography-coupled mass spectrometry (LC–MS)

[14] = bacteroides fragilis, 12 h, 2 µM; remark: listed apart in the source
Description: The drug is tested on Bacteroides fragilis strain: DS-208 for biotransformation. The drug concentrations were measured before and after a 12-h incubation by liquid-chromatography-coupled mass spectrometry (LC–MS)

[15] = The drug is tested on Dorea formicigenerans strain: ATCC27755 for biotransformation. The drug concentrations were measured before and after a 12-h incubation by liquid-chromatography-coupled mass spectrometry (LC–MS); settings: 2 µM
[16] = The drug is tested on Bacteroides pectinophilus strain: ATCC43243 for biotransformation. The drug concentrations were measured before and after a 12-h incubation by liquid-chromatography-coupled mass spectrometry (LC–MS); settings: 2 µM
[17] = The drug is tested on Collinsella intestinalis strain: DSM13280 for biotransformation. The drug concentrations were measured before and after a 12-h incubation by liquid-chromatography-coupled mass spectrometry (LC–MS); settings: 2 µM
[18] = The drug is tested on Clostridium ramosum strain: DSM1402 for biotransformation. The drug concentrations were measured before and after a 12-h incubation by liquid-chromatography-coupled mass spectrometry (LC–MS); settings: thomasclavelia ramosa, 2 µM
[19] = The drug is tested on Alistipes indistinctus strain: DSM22520 for biotransformation. The drug concentrations were measured before and after a 12-h incubation by liquid-chromatography-coupled mass spectrometry (LC–MS); settings: 2 µM

Structure (SMILES) | Bacterial Biotransformation [1] | Bacterial Biotransformation [2] | Bacterial Biotransformation [3] | Bacterial Biotransformation [4] | Bacterial Biotransformation [5] | Bacterial Biotransformation [6] | Bacterial Biotransformation [7] | Bacterial Biotransformation [8] | Bacterial Biotransformation [9] | Bacterial Biotransformation [10] | Bacterial Biotransformation [11] | Bacterial Biotransformation [12] | Bacterial Biotransformation [13] | Bacterial Biotransformation [14] | Bacterial Biotransformation [15] | Bacterial Biotransformation [16] | Bacterial Biotransformation [17] | Bacterial Biotransformation [18] | Bacterial Biotransformation [19]
CCc1cccc2c3c([nH]c12)C(CC)(CC(=O)O)OCC3 (stereo not given) [ETODOLAC] | Compound NOT metabolized | Compound NOT metabolized | Compound NOT metabolized | Compound NOT metabolized | Compound NOT metabolized | Compound NOT metabolized | Compound NOT metabolized | Compound NOT metabolized | Compound NOT metabolized | Compound NOT metabolized | Compound NOT metabolized | Compound metabolized | Compound metabolized | Compound metabolized | Compound NOT metabolized | Compound NOT metabolized | Compound NOT metabolized |  | 
CC(O)(CS(=O)(=O)c1ccc(F)cc1)C(=O)Nc1ccc(C#N)c(C(F)(F)F)c1 (stereo not given) [BICALUTAMIDE] | Compound NOT metabolized | Compound NOT metabolized | Compound NOT metabolized | Compound NOT metabolized | Compound metabolized | Compound NOT metabolized | Compound NOT metabolized | Compound NOT metabolized | Compound NOT metabolized | Compound NOT metabolized | Compound NOT metabolized | Compound NOT metabolized | Compound NOT metabolized | Compound NOT metabolized | Compound NOT metabolized | Compound NOT metabolized | Compound NOT metabolized | Compound NOT metabolized | 
CN(CCOc1ccc(CC2SC(=O)NC2=O)cc1)c1ccccn1.O=C(O)/C=C\C(=O)O (stereo not given) [ROSIGLITAZONE MALEATE] | Compound NOT metabolized | Compound NOT metabolized | Compound NOT metabolized | Compound NOT metabolized |  | Compound NOT metabolized | Compound NOT metabolized | Compound NOT metabolized | Compound NOT metabolized | Compound NOT metabolized | Compound NOT metabolized | Compound NOT metabolized | Compound NOT metabolized | Compound NOT metabolized | Compound NOT metabolized | Compound NOT metabolized | Compound NOT metabolized |  | 
COc1cc2nc(N3CCN(C(=O)c4ccco4)CC3)nc(N)c2cc1OC [PRAZOSIN] | Compound NOT metabolized | Compound NOT metabolized | Compound NOT metabolized | Compound NOT metabolized |  | Compound NOT metabolized | Compound NOT metabolized | Compound NOT metabolized | Compound NOT metabolized | Compound NOT metabolized | Compound NOT metabolized | Compound NOT metabolized | Compound NOT metabolized | Compound NOT metabolized | Compound NOT metabolized | Compound NOT metabolized | Compound NOT metabolized | Compound NOT metabolized | 
O=C(O)CCC(=O)O.O=C(O[C@H]1CN2CCC1CC2)N1CCc2ccccc2[C@@H]1c1ccccc1 [SOLIFENACIN SUCCINATE] | Compound NOT metabolized | Compound NOT metabolized | Compound NOT metabolized | Compound NOT metabolized |  | Compound NOT metabolized | Compound NOT metabolized | Compound NOT metabolized | Compound NOT metabolized | Compound NOT metabolized | Compound NOT metabolized |  |  | Compound NOT metabolized | Compound NOT metabolized | Compound NOT metabolized | Compound NOT metabolized | Compound NOT metabolized | 
CN1CC(=O)N2[C@H](c3ccc4c(c3)OCO4)c3[nH]c4ccccc4c3C[C@@H]2C1=O | Compound NOT metabolized | Compound NOT metabolized | Compound NOT metabolized | Compound NOT metabolized |  | Compound NOT metabolized | Compound NOT metabolized | Compound metabolized | Compound NOT metabolized | Compound metabolized |  |  |  |  | Compound NOT metabolized | Compound NOT metabolized | Compound NOT metabolized | Compound NOT metabolized | Compound NOT metabolized
N=C(N)NC(=O)Cc1c(Cl)cccc1Cl [GUANFACINE] | Compound NOT metabolized |  |  | Compound NOT metabolized | Compound NOT metabolized | Compound NOT metabolized | Compound NOT metabolized |  | Compound NOT metabolized | Compound NOT metabolized | Compound NOT metabolized | Compound NOT metabolized | Compound NOT metabolized | Compound NOT metabolized | Compound NOT metabolized | Compound NOT metabolized | Compound NOT metabolized | Compound NOT metabolized | 
CC(CN1c2ccccc2Sc2ccccc21)N(C)C (stereo not given) [PROMETHAZINE] | Compound NOT metabolized |  | Compound NOT metabolized | Compound NOT metabolized |  | Compound NOT metabolized | Compound NOT metabolized | Compound NOT metabolized | Compound NOT metabolized | Compound NOT metabolized | Compound NOT metabolized | Compound NOT metabolized | Compound NOT metabolized | Compound NOT metabolized | Compound NOT metabolized | Compound NOT metabolized | Compound NOT metabolized | Compound NOT metabolized | 
CCCc1nc2c(C)cc(-c3nc4ccccc4n3C)cc2n1Cc1ccc(-c2ccccc2C(=O)O)cc1 | Compound metabolized |  | Compound NOT metabolized |  | Compound NOT metabolized |  |  |  | Compound NOT metabolized | Compound metabolized |  | Compound metabolized |  |  | Compound NOT metabolized |  |  | Compound NOT metabolized | Compound NOT metabolized
CCOc1ccc(NC(C)=O)cc1 [PHENACETIN] | Compound NOT metabolized | Compound NOT metabolized | Compound NOT metabolized | Compound NOT metabolized | Compound NOT metabolized | Compound NOT metabolized | Compound NOT metabolized | Compound NOT metabolized | Compound NOT metabolized | Compound NOT metabolized | Compound NOT metabolized | Compound NOT metabolized | Compound NOT metabolized | Compound NOT metabolized | Compound NOT metabolized | Compound NOT metabolized | Compound NOT metabolized |  | Compound NOT metabolized
